Legend:
alcohol oxidase [1] = target: T1, alcohol oxidase (Pichia angusta, UniProt P04841); assay: Hydrogen peroxide concentration in control buffer or AATCC liquid detergent stock (as is) with alcohol oxidase, ethanol and inhibitor; assay type: biochemical, Hansunela sp.; conditions: for character of alcohol oxidase inhibition: 100 mM concentration tested; for premature generation of H2O2 in AATCC detergent stock / H2O2 PPM: 100 mM inhibitor; for premature generation of H2O2 in AATCC detergent stock: period of investigation 120 minutes; for H2O2 PPM: as is, 1 M ethanol, 10U enzyme
T1 construct: purchased Sigma
T1 sequence (P04841 whole entry): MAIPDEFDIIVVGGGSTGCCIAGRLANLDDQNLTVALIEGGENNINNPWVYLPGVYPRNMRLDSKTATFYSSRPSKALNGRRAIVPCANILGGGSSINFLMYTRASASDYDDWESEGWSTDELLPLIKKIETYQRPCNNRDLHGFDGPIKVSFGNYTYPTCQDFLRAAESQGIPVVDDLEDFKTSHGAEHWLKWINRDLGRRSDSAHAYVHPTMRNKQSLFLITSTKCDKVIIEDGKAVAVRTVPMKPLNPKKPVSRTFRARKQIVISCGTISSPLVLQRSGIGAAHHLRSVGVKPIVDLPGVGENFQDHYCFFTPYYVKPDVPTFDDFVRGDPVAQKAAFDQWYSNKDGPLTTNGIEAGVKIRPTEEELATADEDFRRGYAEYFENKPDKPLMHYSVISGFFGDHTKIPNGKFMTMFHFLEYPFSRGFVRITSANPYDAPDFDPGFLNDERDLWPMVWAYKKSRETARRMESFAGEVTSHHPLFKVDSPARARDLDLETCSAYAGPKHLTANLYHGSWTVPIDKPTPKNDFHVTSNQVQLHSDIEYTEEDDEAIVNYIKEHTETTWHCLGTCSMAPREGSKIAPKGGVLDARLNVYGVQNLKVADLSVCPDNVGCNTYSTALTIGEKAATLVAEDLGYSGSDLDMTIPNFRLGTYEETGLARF
Protocol: In these experiments, the stability of alcohol oxidase obtained from Hansunela sp., (100 U/ml. 22 U/mg, 13 mg total solid in vial, 7.7 U/mg solid; Sigma) in AATCC liquid detergent was tested. In these experiments, 10 U of the alcohol oxidase were used in liquid detergent stock for each experiment. For testing, 1M ethanol was mixed into the detergent (46 mg ethanol in 990 mg detergent). […] The experiments were conducted as described above in Examples 1 and 3.

glucose oxidase = target: T2, glucose oxidase (Aspergillus niger, UniProt P13006); assay: Hydrogen peroxide generation by glucose oxidase after dilution of the mixture in laundry wash liquor, dipsticks; assay type: biochemical; conditions: for Hydrogen Peroxide Generation, PPM H2O2 / H2O2 PPM: wash liquor, 1 mM glucose; for Hydrogen Peroxide Generation, PPM H2O2: 1 PPM oxidase; for character of glucose oxidase inhibition: inhibited at high substrate concentration in detergent, inhibition disappears upon dilution in wash water, concentration-dependent; for hydrogen peroxide produced: liquid detergent formulations after 3 weeks of storage with inhibitor, diluted in wash liquor; for H2O2 generated: wash liquor control containing buffer
T2 construct: purchased Genencor OXYGO L-5000
T2 sequence (P13006 17-605): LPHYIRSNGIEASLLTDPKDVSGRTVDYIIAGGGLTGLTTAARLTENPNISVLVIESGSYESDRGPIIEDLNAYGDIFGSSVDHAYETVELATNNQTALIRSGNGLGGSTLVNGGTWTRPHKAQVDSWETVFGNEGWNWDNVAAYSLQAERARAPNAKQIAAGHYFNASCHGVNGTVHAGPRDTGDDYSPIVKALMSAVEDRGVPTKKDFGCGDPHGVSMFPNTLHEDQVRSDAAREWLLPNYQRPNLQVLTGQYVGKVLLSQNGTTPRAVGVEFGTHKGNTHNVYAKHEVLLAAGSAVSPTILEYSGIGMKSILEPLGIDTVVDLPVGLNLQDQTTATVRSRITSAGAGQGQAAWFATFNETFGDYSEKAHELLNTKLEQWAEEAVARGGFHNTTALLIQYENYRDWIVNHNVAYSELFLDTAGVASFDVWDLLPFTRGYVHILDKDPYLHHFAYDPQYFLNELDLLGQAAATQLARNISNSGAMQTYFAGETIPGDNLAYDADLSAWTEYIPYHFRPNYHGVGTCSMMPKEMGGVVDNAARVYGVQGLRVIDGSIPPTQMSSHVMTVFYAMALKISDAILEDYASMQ
Protocol: In these experiments, 100 mM Tris pH 8.3 with 0.005% TWEEN®-100 surfactant was used as a positive control. The choice of pH 8.3 was based upon the measured pH of the AATCC detergent. Three two-ml tubes containing 0.990 g of AATCC detergent (lot # 01282004) and another three tubes with 0.990 g of control buffer were weighed. Then, 90 mg (500 mM) glucose substrate was added to each tube. […] All of the tubes were placed on a rotary plate for an hour to allow good mixing and solubilization of glucose into the detergent. Then, 6 tubes containing five-ml wash water (5 mM HEPES with 6 GPG, pH 8) were prepared. Next, 500 PPM (0.5 mg, 14.88 ul) glucose oxidase (OXYGO™ L-5000, 5379 U/ml; 33.6 mg/ml; Genencor) was added to six 2-ml tubes (three with glucose/bisulfite containing control buffers and three with glucose/bisulfite containing AATCC detergent). All of the tubes were then set on the rotary plate (60 rpm) at room temperature. H2O2 production was measured using dipsticks (peroxidase/ABTS), as described in Example 1, for t=0+ minutes, 12 minutes, and 30 minutes. Immediately after addition of the enzyme to the detergent and control mixtures, 10 ul of the mixture were removed and mixed with 5 ml of wash water. All of the tubes were also then checked for hydrogen peroxide using dipsticks at 12 and 30 minutes. With 5 ml wash liquor, the final glucose oxidase enzyme concentration was 1 PPM and the glucose concentration was 1 mM.
In these experiments, 100 mM Tris pH 8.3 with 0.005% TWEEN®-100 surfactant was used as a positive control. The choice of pH 8.3 was based upon the measured pH of the AATCC detergent. Three two-ml tubes containing 0.990 g of AATCC detergent (lot # 01282004) and another three tubes with 0.990 g of control buffer were weighed. Then, 90 mg (500 mM) glucose substrate was added to each tube. Then, 100, 50, and 10 mM sodium metabisulfite were added to each tube respectively (i.e., both control buffer and AATCC detergent-containing tubes). All of the tubes were placed on a rotary plate for an hour to allow good mixing and solubilization of glucose into the detergent. Then, 6 tubes containing five-ml wash water (5 mM HEPES with 6 GPG, pH 8) were prepared. Next, 500 PPM (0.5 mg, 14.88 ul) glucose oxidase (OXYGO™ L-5000, 5379 U/ml; 33.6 mg/ml; Genencor) was added to six 2-ml tubes (three with glucose/bisulfite containing control buffers and three with glucose/bisulfite containing AATCC detergent). All of the tubes were then set on the rotary plate (60 rpm) at room temperature. H2O2 production was measured using dipsticks (peroxidase/ABTS), as described in the above Examples, for t=0+ minutes, 12 minutes, and 30 minutes. Immediately after addition of the enzyme to the detergent and control mixtures, 10 ul of the mixture were removed and mixed with 5 ml of wash water. All of the tubes were also then checked for hydrogen peroxide using dipsticks at 12 and 30 minutes. With 5 ml wash liquor, the final glucose oxidase enzyme concentration was 1 PPM and the glucose concentration was 1 mM.

alcohol oxidase [2] = target: T1, alcohol oxidase; assay: Hydrogen peroxide concentration in wash liquor with alcohol oxidase, ethanol and inhibitor; assay type: biochemical, Hansunela sp.; conditions: 2 mM ethanol, 0.02U enzyme, 0.2 mM inhibitor
Protocol: The stability and activity of the alcohol oxidase enzyme (described in Example 5) in AATCC liquid detergent (Sigma, 100 U/ml. 22 U/mg, 13 mg total solid in vial, 7.7 U/mg solid) was tested upon dilution into wash liquor. In these experiments, 10 U of alcohol oxidase were used in liquid detergent stock for each experiment. In addition, 1M ethanol (substrate) was mixed in detergent (46 mg ethanol in 990 mg detergent). […] In these experiments, 10 ul of final detergent mix or control mix were added to 5 ml of wash liquor. The same methods as described in Examples 2 and 4 were used in these experiments.

| SMILES | character of alcohol oxidase inhibition (alcohol oxidase [1]) | premature generation of H2O2 in AATCC detergent stock (alcohol oxidase [1]) | H2O2 PPM (alcohol oxidase [1]; AATCC Detergent, T = 0+) [PPM] | H2O2 PPM (alcohol oxidase [1]; AATCC Detergent, T = 12 min) [PPM] | H2O2 PPM (alcohol oxidase [1]; AATCC Detergent, T = 30 min) [PPM] | H2O2 PPM (alcohol oxidase [1]; AATCC Detergent, T = 120 min) | H2O2 PPM (alcohol oxidase [1]; Control Buffer, T = 0+) [PPM] | H2O2 PPM (alcohol oxidase [1]; Control Buffer, T = 12 min) [PPM] | H2O2 PPM (alcohol oxidase [1]; Control Buffer, T = 30 min) [PPM] | H2O2 PPM (alcohol oxidase [1]; Control Buffer, T = 120 min) [PPM] | character of glucose oxidase inhibition (glucose oxidase) | H2O2 PPM (alcohol oxidase [2]; AATCC Detergent, T = 12 min) [PPM] | H2O2 PPM (alcohol oxidase [2]; AATCC Detergent, T = 30 min) [PPM] | H2O2 PPM (alcohol oxidase [2]; AATCC Detergent, T = 120 min) | H2O2 PPM (alcohol oxidase [2]; Control Buffer, T = 0+) [PPM] | H2O2 PPM (alcohol oxidase [2]; Control Buffer, T = 12 min) [PPM] | H2O2 PPM (alcohol oxidase [2]; Control Buffer, T = 30 min) [PPM] | H2O2 PPM (alcohol oxidase [2]; Control Buffer, T = 120 min) | further results |
| --- | --- | --- | --- | --- | --- | --- | --- | --- | --- | --- | --- | --- | --- | --- | --- | --- | --- | --- | --- |
| O=S([O-])O.[Na+] [bisulfite, sodium hydrogen sulfite] | reversible inhibitors | able to stop premature generation of H2O2 | 0 | 0 | 0 | 0, PPM | 0 | 0 | 0 | 0 | reversible inhibitor | 0 | 0 | >3 (hydrogen sulfite) PPM | 0 | 0 | 0 | 1 (hydrogen sulfite) PPM | Hydrogen Peroxide Generation, PPM H2O2 (glucose oxidase; AATCC Detergent, T = 12 (second line so headed, after the T = 30 lines), 0.2 mM bisulfite): ˜10 PPM; Hydrogen Peroxide Generation, PPM H2O2 (glucose oxidase; AATCC Detergent, T = 12 min, 0.02 mM bisulfite): 3 PPM; Hydrogen Peroxide Generation, PPM H2O2 (glucose oxidase; AATCC Detergent, T = 12 min, 0.1 mM bisulfite): 3 PPM; Hydrogen Peroxide Generation, PPM H2O2 (glucose oxidase; AATCC Detergent, T = 12 min, 0.2 mM bisulfite): 3 PPM; Hydrogen Peroxide Generation, PPM H2O2 (glucose oxidase; AATCC Detergent, T = 30 min, 0.02 mM bisulfite): 10 PPM; Hydrogen Peroxide Generation, PPM H2O2 (glucose oxidase; AATCC Detergent, T = 30 min, 0.1 mM bisulfite): ˜10 PPM; Hydrogen Peroxide Generation, PPM H2O2 (glucose oxidase; Control Buffer, T = 12 (second line so headed, after the T = 30 lines), 0.2 mM bisulfite): ˜3 PPM; Hydrogen Peroxide Generation, PPM H2O2 (glucose oxidase; Control Buffer, T = 30 min, 0.02 mM bisulfite): 10 PPM; Hydrogen Peroxide Generation, PPM H2O2 (glucose oxidase; Control Buffer, T = 30 min, 0.1 mM bisulfite): ˜10 PPM; hydrogen peroxide generated (glucose oxidase; wash liquor containing AATCC detergent, all three bisulfite inhibitor concentrations, 12 minutes): > 3 PPM; hydrogen peroxide generated (glucose oxidase; wash liquor with AATCC detergent, all three bisulfite inhibitor concentrations, 30 minutes): ~10 PPM; H2O2 PPM (alcohol oxidase [2]; AATCC Detergent, T = 0+): 0 PPM |
| O=S([O-])S(=O)(=O)[O-].[Na+].[Na+] [sodium metabisulfite] | reversible inhibitors | able to stop premature generation of H2O2 | 0 | 0 | 0 | 0, PPM | 0 | 0 | 0 | 0 | reversible inhibitor | 0 | 0 | 1 (metabisulfite) PPM | 0 | 0 | 0 | 0 (metabisulfite) PPM | H2O2 PPM (glucose oxidase; AATCC Detergent, T = 12 min, 1 PPM enzyme, 0.2 mM sodium metabisulfite): 3 PPM; H2O2 PPM (glucose oxidase; AATCC Detergent, T = 30 min, 1 PPM enzyme, 0.2 mM sodium metabisulfite): ˜10 PPM; H2O2 PPM (glucose oxidase; AATCC Detergent, T = 60 min, 1 PPM glucose oxidase, 0.2 mM sodium metabisulfite): >10 PPM; H2O2 PPM (glucose oxidase; Control Buffer, T = 12 min, 1 PPM enzyme, 0.2 mM sodium metabisulfite (100 mM in formulation)): ~3 PPM; H2O2 PPM (glucose oxidase; Control Buffer, T = 12 min, 1 PPM enzyme, 0.2 mM sodium metabisulfite (100 mM in formulation), listed as sodium metabisulftie): 1 PPM; H2O2 PPM (glucose oxidase; Control Buffer, T = 30 min, 1 PPM enzyme, 0.2 mM sodium metabisulfite): 3 PPM; H2O2 PPM (glucose oxidase; Control Buffer, T = 60 min, 1 PPM glucose oxidase, 0.2 mM sodium metabisulfite): 10 PPM; hydrogen peroxide produced (glucose oxidase; 12 minutes): 3 PPM; hydrogen peroxide produced (glucose oxidase; 30 minutes): ~10 PPM; hydrogen peroxide generated (glucose oxidase; wash liquor containing AATCC detergent, all three metabisulfite inhibitor concentrations, 12 minutes): > 3 PPM; H2O2 generated (glucose oxidase; 10 mM metabisulfite (formulation), 12 minutes): about 10 PPM; H2O2 generated (glucose oxidase; 50 mM metabisulfite (formulation), 12 minutes): about 10 PPM; hydrogen peroxide generated (glucose oxidase; wash liquor with AATCC detergent, all three metabisulfite inhibitor concentrations, 30 minutes): ~10 PPM |

— US20080025960A1, “Detergents with stabilized enzyme systems” (priority 2006, published 2008)
